In ChEMBL document CHEMBL3507680, “University of Dundee, Gates Library screen for HepG2 cell viability”:

Experiment: Human HepG2 cell viability assay in 384 well format
Assay type: toxicity, cell-based
Parameters: dose 125 nL, time 70.5 hour; cytotoxicity at 70.5 h: concentration not given beside the values
Details: HepG2 cells, read-out: Inhibition

Row | SMILES | cytotoxicity at 70.5 h [%]
1 | O=c1[nH]cnc2[nH]c(N3CCCCC3)nc12 | -5.16
2 | COc1ccc(CCN2CCCC(CN(C)Cc3[nH]cnc3C)C2)cc1 (stereo not given) | 1.62
3 | CN(CC1CCCCO1)S(=O)(=O)c1cccc(C(=O)N2CCOCC2)c1 (stereo not given) | -10.5
4 | C=C(C)COc1ccccc1CN1CCC(NC(C)=O)CC1 | 25.2
5 | Cc1nn(C)c(C)c1-c1ccnc(N(C)Cc2nc(C(C)C)no2)n1 | 3.94
6 | CNc1nc(N2CCN(C3CCCCC3)C(CCO)C2)nc2c1CCC2 (stereo not given) | -3.63
7 | CCN(Cc1ccncc1)c1nc(C)nc2oc(C)nc12 | -5.52
8 | CCc1n[nH]c(C(=O)N2CCN(c3ccc4ccccc4c3)CC2)c1C | -6.66
9 | CCc1[nH]c2c(CNc3cncc(C(=O)N(C)C)n3)cc(F)cc2c1C | 4.01
10 | COc1ccc(Cc2ncc3c(n2)CN(C(=O)C2COCCO2)C3)cc1 (stereo not given) | -3.32
11 | CC(C)=CCN1C[C@H]2CC[C@@H]1CN(S(=O)(=O)c1cccnc1)C2 | 6.15
12 | CCn1ccnc1CN(C)c1cc(C2CC2)ncn1 | -5.12
13 | N[C@H]1CN(C(=O)c2ccccc2Oc2ccccc2)C[C@@H]1C1CC1 | -9.43
14 | CCN1CCC(CC(=O)NCCc2nc(C)c(Cl)s2)CC1 | -6.45
15 | CCN(CC)C(=O)C1CCCN(CC(=O)Nc2c(C)nn(CC)c2C)C1 (stereo not given) | 22.3
16 | CCCNc1ncc(CN2CCC3(CCNC(=O)CC3)CC2)cn1 | -3.92
17 | Cc1ccccc1CN(CCN(C)C)C(=O)c1ccc2nccn2c1 | 0.498
18 | O=C(c1coc(COc2ccccc2F)n1)N1CCC[C@H]1CO | -2.42
19 | CCc1ncc(C(=O)N(C)CC2Cc3ccccc3O2)cn1 (stereo not given) | 25.4
20 | CC(C)c1cc(C(=O)N2CCN(c3ccncc3)CC2)n(C)n1 | -11.9
21 | CC(C)n1cnnc1CN(C)CC1CCCNC1 (stereo not given) | -5.56
22 | CN1C(=O)[C@H]2CC[C@@H]1CN(C(=O)c1sccc1S(N)(=O)=O)C2 | -4.92

Row | SMILES | cytotoxicity at 70.5 h [%]
23 | CC(C)CCC(=O)N1CCC(c2nnc(CN(C)CCO)n2C)CC1 | -2.45
24 | Cc1c(NC(=O)NC2CN3CCC2CC3)cccc1C(=O)N1CCCC1 (stereo not given) | 37.5
25 | CCOc1ccccc1OCCN(C)Cc1ncnn1CC | -6.09
26 | Cc1cc(N2CCCC(O)(CN(C)C)CC2)nc(-c2ccccc2)n1 (stereo not given) | -4.65
27 | CCc1cc(CN2C[C@H]3CC[C@@H]2CN(C2Cc4ccccc4C2)C3)on1 | -2.96
28 | O=C(NCc1cc2n(n1)CCCNC2)c1cn2cc(Cl)ccc2n1 | -2.1
29 | CSCCCN1CCn2nc(CNC(=O)N(C)C)cc2C1 | 0.863
30 | CCOCCn1c(=O)[nH]c2cc(C(=O)N(C)Cc3ccno3)ccc21 | -1.24
31 | O=C(O)[C@@H]1CN(C(=O)CC2CCCC2)C[C@H]1c1ccc(F)cc1 | -6.35
32 | O=C(c1ccc2ccccc2c1)C1CCCN(C(=O)Cn2cncn2)C1 (stereo not given) | -1.71
33 | O=C(c1cccnc1)N1CCC(Oc2cccc(C(F)(F)F)c2)CC1 | -4.72
34 | NCc1n[nH]c(=O)n1-c1cccc(Cl)c1Cl | -3.71
35 | CCC(CO)N(Cc1cccnc1)C(=O)c1ccc(C(F)(F)F)nc1O (stereo not given) | -18.7
36 | CCCn1cc(-c2cc(-c3ccoc3)c(C#N)c(N)n2)c(C)n1 | 5.86
37 | CN1[C@H]2CC[C@@H]1CN(C(=O)c1nnc3n1CCCCC3)CC2 | -9.52
38 | CCCc1nc(C)c(CNc2nc(C)nc3onc(C)c23)s1 | 2.81
39 | CNc1nc(C)c(C(=O)N2CCC(C(O)Cc3ccccc3)CC2)s1 (stereo not given) | -11.8
40 | CCN1CCc2[nH]cnc2C12CCN(C(=O)CCCn1cncn1)CC2 | -1.47
41 | CSc1ccccc1C(=O)N(C)Cc1nncn1C(C)C | -0.541
42 | CC(=O)c1ccccc1-c1nc(CC2CCN(C)CC2)no1 | 16.1
43 | COc1ccc(CN2CCCC(Nc3cccc(F)c3)C2)cc1O (stereo not given) | -2.89
44 | O[C@H]1[C@H](n2cc(-c3cccnc3)nn2)c2ccccc2C12CCNCC2 | 0.63

Row | SMILES | cytotoxicity at 70.5 h [%]
45 | Cc1cc(CN2CCC(CNC(=O)c3ccc(O)c(Cl)c3)C2)[nH]n1 (stereo not given) | -4.96
46 | CC(=O)N1CCc2c(nc(-c3ccccn3)nc2N(C)CC(O)CO)C1 (stereo not given) | -9.73
47 | COc1ccccc1CN1C(=O)O[C@@H]2CN(c3nccs3)C[C@@H]21 | 1.12
48 | CCn1cc(CN(C)C(=O)c2cccc(CCC(C)(C)O)c2)cn1 | -3.4
49 | CCc1cc(NC2CCN(S(C)(=O)=O)CC2)n2nc(C)c(C)c2n1 | -1.04
50 | CN1C(=O)C(c2ccccc2)CC12CCN(CCOCCO)CC2 (stereo not given) | 3.55
51 | COc1cccc(-c2noc(-c3ccc(NCC4CC4)nc3)n2)c1OC | -2.04
52 | CN(C)C(=O)c1ccc2c(c1)N(C)C(CC(=O)NCc1ccno1)CO2 (stereo not given) | -4.48
53 | CC(=O)N1CCc2c(nc(-c3ccncc3)nc2N(C)CC(O)CO)C1 (stereo not given) | -9.59
54 | CN(C)c1ccccc1C(=O)N1C[C@@H](CN2CCOCC2)[C@@H](CO)C1 | -3.02
55 | O=C(Cc1cccnc1)N1CCC(OCc2ccccc2)CC1 | -11.4
56 | Cc1ccc(CN2CCN(CC3CC3)[C@@H]3CS(=O)(=O)C[C@@H]32)cc1C | -6.12
57 | Cn1cc(CCC(=O)N2C[C@H]3CC[C@@H]2CN(Cc2ccccc2)C3)cn1 | -5.6
58 | Cc1cc(CC(=O)N2CCN(CC3CC3)[C@@H]3CS(=O)(=O)C[C@@H]32)ccc1F | 4.69
59 | Cc1ccc(C(=O)N2Cc3ccccc3C2)cc1N1CCNC1=O | -6.89
60 | O=c1cc(CN2CCCC(CCc3c(F)cccc3F)C2)[nH]c(=O)[nH]1 (stereo not given) | -8.15
61 | O=C1[C@H]2CC[C@H](CN(Cc3ccccc3OC(F)F)C2)N1CC1CC1 | -7.82
62 | COc1cccc(CCC2CCCN(C(=O)C3=NN(C)C(=O)CC3)C2)c1 (stereo not given) | -5.36
63 | CN(C)c1ccc(CCNC(=O)C2CCC(=O)N(C3CCCC3)C2)cc1 (stereo not given) | -8
64 | O=C(c1ccc[nH]1)N1CCC2(CC1)C(=O)Nc1ccccc12 | -14.9
65 | COc1cccc(CC2CN(C3CCN(C(C)=O)CC3)CCO2)c1 (stereo not given) | -5.79
66 | CCCc1n[nH]cc1C(=O)N1CCC(c2nccn2CCOC)CC1 | 19

Row | SMILES | cytotoxicity at 70.5 h [%]
67 | CCS(=O)(=O)N1CCC(c2nnc(CN3CCOCC3)n2C)CC1 | -2.17
68 | Cc1nccnc1CN1CCC2(CCCN(C3CCOCC3)C2=O)C1 (stereo not given) | -2.69
69 | CN(C)CCN(C)C(=O)c1cnc2c(c1)nc(-c1ccccc1Cl)n2C | -5.91
70 | Cc1cc(=O)[nH]c(CCNC(=O)C(c2ccc(F)cc2)N(C)C)n1 (stereo not given) | 4.61
71 | CCCc1cc(C(=O)N2CCCC2c2cccnc2)[nH]n1 (stereo not given) | -5.97
72 | CN1C(=O)CC(C(=O)O)C12CCN(Cc1ccc(F)cc1Cl)CC2 (stereo not given) | -9.57
73 | CCc1nnc(CN(C)c2nc(C(C)C)nc3c2cnn3C)o1 | -5.57
74 | O=C(NCc1cc(O)ncn1)C1CCOc2ccccc2C1 (stereo not given) | -7.76
75 | Cn1c(Cn2ccnc2)nnc1C1CCCN(C2CCCCC2)C1 (stereo not given) | -9.84
76 | CCn1c(N)nc2cc(C(=O)NCCc3sccc3C)cnc21 | -4.44
77 | COCc1cc(NCCc2ccc(F)cc2)n2nccc2n1 | -0.706
78 | CCC1c2cccn2CCN1C(=O)c1ccc2nonc2c1 (stereo not given) | -2.25
79 | COC[C@@]12CC[C@@H](N3CCOCC3)C[C@H]1CCN(c1ncccn1)C2 | -10.2
80 | CC(=O)NCC1CCN(CC2CCOc3ccccc3C2)CC1 (stereo not given) | -4.25
81 | Cc1nc(CN2CCCC(CCNS(C)(=O)=O)C2)c[nH]1 (stereo not given) | -11.3
82 | CC(=O)c1cc(CC(=O)NCc2c(F)cccc2F)cs1 | -7.61
83 | CCc1cc(N2CCCNCC2)n2nc(C)c(C)c2n1 | -5.51
84 | Cc1ncccc1OC1(C(=O)NCCNc2ccccc2)CCNCC1 | -5.68
85 | CC(C)n1ccnc1C1CCN(C(=O)c2cc[nH]n2)CC1 | -10.9
86 | Cc1cc(CN2CCOCS2(=O)=O)ccc1F | -7.79
87 | CCOc1ccc2[nH]c(=O)c(CN3CCC(O)CC3)cc2c1 | -7.88
88 | CC(C)(C)N1CC(C(=O)N2CCN(CCc3ccccc3)CC2)CC1=O (stereo not given) | -12.8

Row | SMILES | cytotoxicity at 70.5 h [%]
89 | CC(C)=CCN1CCC(c2nccn2Cc2cscn2)CC1 | -2.36
90 | CNC(=O)CC1CCN(Cc2nc(-c3cccc(Cl)c3)oc2C)CC1 | -7.93
91 | CSCCC1c2nc[nH]c2CCN1Cc1ccnc2ccccc12 (stereo not given) | -12.3
92 | CCc1nc(N)sc1C(=O)N1CCCC(CCc2ccccc2C)C1 (stereo not given) | -6.29
93 | CC(C)C1CN(c2ncc(F)cn2)CCC(=O)N1Cc1ccc(F)cc1 (stereo not given) | -6.84
94 | CCn1nc(C(C)C)cc1C(=O)NCCCOC | -4.05
95 | CN(C)S(=O)(=O)N1C[C@@H]2CC[C@H](C1)N(Cc1ccc3nsnc3c1)C2 | 5.66
96 | O=C(CCc1c[nH]cn1)N1CC[C@@H](c2ccc3ccccc3c2)[C@H](O)C1 | -8.55
97 | Cc1cc(C(=O)N2C[C@@H](C(=O)O)[C@H](c3ccccc3C)C2)c(C)o1 | 13.2
98 | CS(=O)(=O)NCc1cc2n(n1)CCCN(Cc1nc3ccccc3[nH]1)C2 | -8.44
99 | COc1ccccc1OC1(C(=O)O)CCN(c2nccnc2C)CC1 | -5.26
100 | Cc1cc(CN2CCC(CNC(=O)c3nccc4ccccc34)C2)[nH]n1 (stereo not given) | 9.66
101 | CCCC1(CO)CCCN(c2ncccc2F)C1 (stereo not given) | -7.06
102 | Cn1ncc2c(NCCOc3ccc(F)cc3)nc(C3CCCC3)nc21 | 0.952
103 | CCCN1CCCn2nc(CNS(=O)(=O)c3cccc(C#N)c3)cc2C1 | -12.6
104 | O=C1N(Cc2ccccc2F)CCCC12CCN(C1CCSCC1)C2 (stereo not given) | -4.98
105 | Cc1nsc(NC(=O)N2CCC(C(C)(C)O)CC2)n1 | -5.05
106 | COc1ncc(-c2nccn2CCN(C)C)cn1 | 9.94
107 | N#Cc1ccc(C(=O)N2CCC3(CC2)C(=O)Nc2ccccc23)cn1 | -11.7
108 | CC(=O)NC(C)CC(=O)NCc1cccnc1Oc1ccccc1C (stereo not given) | -6.45
109 | CCc1cc2cc(OC)c(OC)cc2nc1SCCN1CCCCC1 | 1.15
110 | CN1CCN(C2CCN(C(=O)CCC3CCCC3)CC2)CC1 | -6.88
